Laboratory results from ChEMBL document CHEMBL1201862, “PubChem BioAssay data set” (2004).
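Following 48 hours of exposure in 96-well plates, responses at five concentrations were used to interpolate endpoints linearly. Abbreviation: GI50, concentration required for 50% inhibition of growth.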 Active and inactive are the calls of the source. No stated cut-off is given here; in the data, active = GI50 up to about 1.1 µM and inactive = higher.

Experiments:
Assay in all cases: NCI-60 cell line screen, 48 h
COLO 205 = tested on: COLO 205
OVCAR-5 = tested on: OVCAR-5
RXF 393 = tested on: RXF 393
MOLT-4 = tested on: MOLT-4
HOP-18 = tested on: HOP-18
OVCAR-8 = tested on: OVCAR-8
NCI-H226 = tested on: NCI-H226
HT-29 = tested on: HT-29
HCT-15 = tested on: HCT-15
HL-60 = tested on: HL-60
NCI-H460 = tested on: NCI-H460
NCI-H522 = tested on: NCI-H522
SF-295 = tested on: SF-295
A549 = tested on: A549
SF-268 = tested on: SF-268
NCI-H23 = tested on: NCI-H23
DMS-114 = tested on: DMS-114
CAKI-1 = tested on: CAKI-1
CCRF-CEM = tested on: CCRF-CEM
OVCAR-3 = tested on: OVCAR-3
SNB-75 = tested on: SNB-75
ACHN = tested on: ACHN
DLD-1 = tested on: DLD-1
OVCAR-4 = tested on: OVCAR-4
SN12C = tested on: SN12C
A498 = tested on: A498
KM12 = tested on: KM12
SK-MEL-2 = tested on: SK-MEL-2
SW-620 = tested on: SW-620
Malme-3M = tested on: Malme-3M
HOP-92 = tested on: HOP-92
DMS-273 = tested on: DMS-273
SNB-78 = tested on: SNB-78
IGROV-1 = tested on: IGROV-1
LXFL 529 = tested on: LXFL 529
SK-MEL-5 = tested on: SK-MEL-5
UACC-257 = tested on: UACC-257
SK-OV-3 = tested on: SK-OV-3
EKVX = tested on: EKVX
LOX IMVI = tested on: LOX IMVI
M19-MEL = tested on: M19-MEL
KM-20L2 = tested on: KM-20L2
M14 = tested on: M14
HCT-116 = tested on: HCT-116
SNB-19 = tested on: SNB-19
UACC-62 = tested on: UACC-62
U-251 = tested on: U-251
K562 = tested on: K562
786-0 = tested on: 786-0
TK-10 = tested on: TK-10
SK-MEL-28 = tested on: SK-MEL-28
UO-31 = tested on: UO-31
SF-539 = tested on: SF-539
HCC 2998 = tested on: HCC 2998
HOP-62 = tested on: HOP-62
RPMI-8226 = tested on: RPMI-8226

With `CC1CN1c1c(C(=O)/C=C/c2ccccc2)c(-c2ccccc2)nn(C)c1=O` (stereo unspecified) the GI50 (COLO 205) was 16.2 µM (inactive), the GI50 (OVCAR-5) was 20.3 µM (inactive) and the GI50 (RXF 393) was 24.7 µM (inactive). The GI50 (MOLT-4) was 15.2 µM (inactive), the GI50 (HOP-18) was 26.2 µM (inactive) and the GI50 (OVCAR-8) was 19.1 µM (inactive). The GI50 (NCI-H226) was 20.8 µM (inactive), the GI50 (HT-29) was 15.7 µM (inactive) and the GI50 (HCT-15) was 14.1 µM. The GI50 (HL-60) was 17.2 µM (inactive), the GI50 (NCI-H460) was 19.1 µM (inactive) and the GI50 (NCI-H522) was 13.4 µM (inactive). For the same compound, the GI50 (SF-295) was 22.6 µM (inactive), the GI50 (A549) was 28.6 µM (inactive) and the GI50 (SF-268) was 27.9 µM (inactive). For the same compound, the GI50 (NCI-H23) was 16.6 µM (inactive), the GI50 (DMS-114) was 23 µM (inactive) and the GI50 (CAKI-1) was 37.4 µM (inactive). For the same compound, the GI50 (CCRF-CEM) was 13.4 µM (inactive), the GI50 (OVCAR-3) was 18.5 µM (inactive) and the GI50 (SNB-75) was 18.8 µM (inactive). For the same compound, the GI50 (ACHN) was 17.4 µM (inactive), the GI50 (DLD-1) was 15.2 µM (inactive) and the GI50 (OVCAR-4) was 16.2 µM (inactive). For the same compound, the GI50 (SN12C) was 17.7 µM (inactive), the GI50 (A498) was 17.7 µM (inactive) and the GI50 (KM12) was 20.8 µM (inactive). The GI50 (SK-MEL-2) was 16.3 µM (inactive), the GI50 (SW-620) was 18.2 µM (inactive) and the GI50 (Malme-3M) was 19.7 µM (inactive). For the same compound, the GI50 (HOP-92) was 13.1 µM (inactive), the GI50 (DMS-273) was 16.7 µM (inactive) and the GI50 (SNB-78) was 18.2 µM (inactive). The GI50 (IGROV-1) was 23.7 µM (inactive), the GI50 (LXFL 529) was 15.3 µM (inactive) and the GI50 (SK-MEL-5) was 15.9 µM (inactive). For the same compound, the GI50 (UACC-257) was 18.1 µM (inactive), the GI50 (SK-OV-3) was 31.6 µM (inactive) and the GI50 (EKVX) was 17.3 µM (inactive). The GI50 (LOX IMVI) was 15.6 µM (inactive), the GI50 (M19-MEL) was 17.3 µM (inactive) and the GI50 (KM-20L2) was 19.1 µM (inactive). The GI50 (M14) was 17.1 µM (inactive), the GI50 (HCT-116) was 17.5 µM (inactive) and the GI50 (SNB-19) was 24.4 µM (inactive). For the same compound, the GI50 (UACC-62) was 16.2 µM (inactive), the GI50 (U-251) was 16.9 µM (inactive) and the GI50 (K562) was 18.2 µM (inactive). For the same compound, the GI50 (786-0) was 15.9 µM (inactive), the GI50 (TK-10) was 25.8 µM (inactive) and the GI50 (SK-MEL-28) was 25.3 µM (inactive). For the same compound, the GI50 (UO-31) was 15.5 µM (inactive), the GI50 (SF-539) was 16.9 µM (inactive) and the GI50 (HCC 2998) was 16.4 µM (inactive). The GI50 (HOP-62) was 22 µM (inactive).
For `COc1cc([C@@H]2c3cc4c(cc3[C@@H](NC(=O)c3cccc(F)c3)C3COC(=O)[C@@H]32)OCO4)cc(OC)c1O` (stereo partly specified), the GI50 (COLO 205) was 3.52 µM (inactive), the GI50 (OVCAR-5) was 2.21 µM (inactive) and the GI50 (RXF 393) was 4.3 µM (inactive). The GI50 (MOLT-4) was < 0.01 µM (active), the GI50 (HOP-18) was > 100 µM (inactive) and the GI50 (OVCAR-8) was 1.76 µM (inactive). The GI50 (NCI-H226) was 0.207 µM (active), the GI50 (HT-29) was 2.05 µM (inactive) and the GI50 (HCT-15) was 1.45 µM. For the same compound, the GI50 (HL-60) was 0.111 µM (active), the GI50 (NCI-H460) was < 0.01 µM (active) and the GI50 (NCI-H522) was 1.4 µM (inactive). The GI50 (SF-295) was 0.412 µM (active), the GI50 (A549) was 0.0327 µM (active) and the GI50 (SF-268) was 1.61 µM (inactive). The GI50 (NCI-H23) was 0.522 µM (active), the GI50 (DMS-114) was 0.607 µM (active) and the GI50 (CAKI-1) was 0.646 µM (active). The GI50 (CCRF-CEM) was 0.111 µM (active), the GI50 (OVCAR-3) was 3.6 µM (inactive) and the GI50 (SNB-75) was 1.23 µM (inactive). The GI50 (ACHN) was 0.125 µM (active), the GI50 (DLD-1) was 2.32 µM (inactive) and the GI50 (RPMI-8226) was 0.466 µM (active). For the same compound, the GI50 (OVCAR-4) was 38.5 µM (inactive), the GI50 (SN12C) was 0.314 µM (active) and the GI50 (A498) was 1.27 µM (inactive). The GI50 (KM12) was 1.76 µM (inactive), the GI50 (SK-MEL-2) was 4.46 µM (inactive) and the GI50 (SW-620) was 0.738 µM (active). For the same compound, the GI50 (Malme-3M) was 1.29 µM (inactive), the GI50 (HOP-92) was 2.74 µM (inactive) and the GI50 (DMS-273) was 0.153 µM (active). For the same compound, the GI50 (SNB-78) was 15.5 µM (inactive), the GI50 (IGROV-1) was 1.19 µM (inactive) and the GI50 (LXFL 529) was 5.5 µM (inactive). The GI50 (SK-MEL-5) was 1.14 µM (inactive), the GI50 (UACC-257) was 7.19 µM (inactive) and the GI50 (SK-OV-3) was 1.26 µM (inactive). For the same compound, the GI50 (EKVX) was 2.1 µM (inactive), the GI50 (LOX IMVI) was 0.698 µM (active) and the GI50 (M19-MEL) was 3.22 µM (inactive). For the same compound, the GI50 (KM-20L2) was 1.68 µM (inactive), the GI50 (M14) was 1.26 µM (inactive) and the GI50 (HCT-116) was 1.76 µM (inactive). The GI50 (SNB-19) was 0.664 µM (active), the GI50 (UACC-62) was 0.385 µM (active) and the GI50 (U-251) was 0.109 µM (active). The GI50 (K562) was 1.61 µM (inactive), the GI50 (786-0) was 0.441 µM (active) and the GI50 (TK-10) was 3.35 µM (inactive). For the same compound, the GI50 (SK-MEL-28) was 2.94 µM (inactive), the GI50 (UO-31) was 2.99 µM (inactive) and the GI50 (SF-539) was 0.356 µM (active). The GI50 (HCC 2998) was 2.66 µM (inactive) and the GI50 (HOP-62) was 0.195 µM (active).
